Reference: article PMC8126209, “Phytochemical Profile and In Vitro Antioxidant, Antimicrobial, Vital Physiological Enzymes Inhibitory and Cytotoxic Effects of Artemisia jordanica Leaves Essential Oil from Palestine” (Molecules, 2021)
Values after ≈ are worked out from the molar mass of the structure shown. Where two headings read alike, the source gives them in different places. Marks after values point to notes of the source that are not given here.

Legend:
MRSA = assay: Broth microdilution MIC, MRSA; assay type: cell-based, methicillin-resistant Staphylococcus aureus; set-up: key: R: Resistant
Procedure: (§1) The antimicrobial activity of the (AJ) EO used in this study was estimated using the broth microdilution method. The (AJ) EO was dissolved in DMSO to a concentration of 200 µg/mL. The produced solution was serially micro-diluted (2-fold) 10 times in sterile Mueller–Hinton broth (Thermo Fisher Scientific, Waltham, MA, USA). The dilution processes were performed under aseptic conditions in 96-well plates. In the micro-wells that were assigned to evaluate the antibacterial activity of (AJ) EO, micro-well number 11 contained plant-free Mueller–Hinton broth, which was used as a positive control for microbial growth. Micro-well number 12 contained plant-free and microbial-free Mueller–Hinton broth, which was used as a negative control for microbial growth. Micro-wells numbered 1–11 were inoculated aseptically with the test microbes. The (AJ) EO antimicrobial activity was determined in triplicate. All the inoculated plates were incubated at 35 °C. Regarding C. albicans, the same method was used but using RPMI media (Thermo Fisher Scientific, Waltham, MA, USA) instead of Mueller–Hinton broth. The incubation period lasted for about 18–24 h for those plates inoculated with the test bacterial strains and for about 48 h for those plates inoculated with C. albicans.

P. aeruginosa = assay: Broth microdilution MIC, P. aeruginosa; assay type: cell-based, Pseudomonas aeruginosa (ATCC 9027); set-up: key: R: Resistant
Procedure: The antibacterial effect of (AJ) EO was determined utilizing several strains of bacteria, which were obtained from the American Type Culture Collection (ATCC): Pseudomonas aeruginosa (ATCC 9027), Escherichia coli (ATCC 25922), Klebsiella pneumonia (ATCC 13883), Proteus vulgaris (ATCC 8427), and Staphylococcus aureus (ATCC 25923), and from a diagnostically confirmed methicillin-resistant Staphylococcus aureus (MRSA). The antifungal activity of (AJ) EO was evaluated against the growth of Candida albicans (ATCC 90028). The antimicrobial activity of the (AJ) EO used in this study was estimated using the broth microdilution method. The (AJ) EO was dissolved in DMSO to a concentration of 200 µg/mL. The produced solution was serially micro-diluted (2-fold) 10 times in sterile Mueller–Hinton broth (Thermo Fisher Scientific, Waltham, MA, USA). The dilution processes were performed under aseptic conditions in 96-well plates. In the micro-wells that were assigned to evaluate the antibacterial activity of (AJ) EO, micro-well number 11 contained plant-free Mueller–Hinton broth, which was used as a positive control for microbial growth. Micro-well number 12 contained plant-free and microbial-free Mueller–Hinton broth, which was used as a negative control for microbial growth. […] The (AJ) EO antimicrobial activity was determined in triplicate. […]

P. vulgaris = assay: Broth microdilution MIC, P. vulgaris; assay type: cell-based, Proteus vulgaris (ATCC 8427)
Procedure: The antibacterial effect of (AJ) EO was determined utilizing several strains of bacteria, which were obtained from the American Type Culture Collection (ATCC): Pseudomonas aeruginosa (ATCC 9027), Escherichia coli (ATCC 25922), Klebsiella pneumonia (ATCC 13883), Proteus vulgaris (ATCC 8427), and Staphylococcus aureus (ATCC 25923), and from a diagnostically confirmed methicillin-resistant Staphylococcus aureus (MRSA). The antifungal activity of (AJ) EO was evaluated against the growth of Candida albicans (ATCC 90028). The antimicrobial activity of the (AJ) EO used in this study was estimated using the broth microdilution method. The (AJ) EO was dissolved in DMSO to a concentration of 200 µg/mL. The produced solution was serially micro-diluted (2-fold) 10 times in sterile Mueller–Hinton broth (Thermo Fisher Scientific, Waltham, MA, USA). The dilution processes were performed under aseptic conditions in 96-well plates. In the micro-wells that were assigned to evaluate the antibacterial activity of (AJ) EO, micro-well number 11 contained plant-free Mueller–Hinton broth, which was used as a positive control for microbial growth. Micro-well number 12 contained plant-free and microbial-free Mueller–Hinton broth, which was used as a negative control for microbial growth. Micro-wells numbered 1–11 were inoculated aseptically with the test microbes. The (AJ) EO antimicrobial activity was determined in triplicate. All the inoculated plates were incubated at 35 °C. Regarding C. albicans, the same method was used but using RPMI media (Thermo Fisher Scientific, Waltham, MA, USA) instead of Mueller–Hinton broth. The incubation period lasted for about 18–24 h for those plates inoculated with the test bacterial strains and for about 48 h for those plates inoculated with C. albicans. […]

K. pneumoniae = assay: Broth microdilution MIC, K. pneumoniae; assay type: cell-based, Klebsiella pneumonia (ATCC 13883); conditions: Klebsiella pneumoniae
Procedure: as §1

Caco-2 = assay: MTS cytotoxicity assay, Caco-2; assay type: cell-based; conditions: Homo sapiens, 24 h, read-out: IC50 against Caco-2
Procedure: (§2) The liver (Hep3B), breast (MCF-7), Human cervical (HeLa), and Colon (CACO-2) tumor cell lines were cultivated separately in RPMI-1640 media (Sigma, Norwich, UK), which was treated with 1% L-glutamine (Sigma, London, UK), 1% penicillin/streptomycin antibiotics (BI, New Delhi, India), and 10% fetal bovine serum. Cancer cells were grown at 37 °C in a humidified atmosphere with 5% CO2. Cells were seeded at 2.6 × 10^4 cells/well in a 96-well plate. […] Cell viability was evaluated by the CellTilter 96® Aqueous One Solution Cell Proliferation (MTS) Assay according to the manufacturer’s directions (Promega Corporation, Madison, WI, USA). At the end of the treatment, 20 μL of MTS solution per 100 μL of media was added to each well, and the solutions in the well plates were incubated at 37 °C for 2 h. The absorbance was measured at 490 nm.

HepG2 = assay: MTS cytotoxicity assay, HepG2; assay type: cell-based; conditions: Homo sapiens, 24 h, text names Hep3B, read-out: IC50 against HepG2
HeLa = assay: MTS cytotoxicity assay, HeLa; assay type: cell-based; conditions: Homo sapiens, 24 h, read-out: IC50 against HeLa
Procedure: as §2

human recombinant COX-2 = target: T1, human recombinant COX-2 (Homo sapiens, UniProt P35354); assay: COX inhibitor screening assay kit, COX-2; assay type: biochemical; conditions: calculated from two concentrations (350 and 50 µg/mL); read-out: IC50 COX-2
T1 construct: purchased Cayman Chemical 560131
T1 sequence (P35354 18-604): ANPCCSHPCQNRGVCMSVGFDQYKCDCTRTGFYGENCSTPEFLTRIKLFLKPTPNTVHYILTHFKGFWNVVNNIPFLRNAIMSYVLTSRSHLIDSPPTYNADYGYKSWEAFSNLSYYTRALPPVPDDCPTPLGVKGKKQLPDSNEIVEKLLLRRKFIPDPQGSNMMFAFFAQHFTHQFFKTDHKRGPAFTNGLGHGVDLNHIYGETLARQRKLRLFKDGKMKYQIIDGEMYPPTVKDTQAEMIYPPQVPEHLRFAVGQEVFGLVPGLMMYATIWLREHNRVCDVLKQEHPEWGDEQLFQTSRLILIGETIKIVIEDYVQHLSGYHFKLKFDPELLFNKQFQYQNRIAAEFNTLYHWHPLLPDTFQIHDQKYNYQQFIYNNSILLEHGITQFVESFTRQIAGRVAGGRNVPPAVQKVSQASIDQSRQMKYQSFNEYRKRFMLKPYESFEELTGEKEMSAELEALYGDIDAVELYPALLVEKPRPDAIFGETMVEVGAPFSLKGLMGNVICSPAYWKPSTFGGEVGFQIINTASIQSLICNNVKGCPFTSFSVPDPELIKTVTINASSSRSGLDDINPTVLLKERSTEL
Source text: The percentage inhibition of the two concentrations was used to calculate the IC50 [69, 70].

bovine COX-1 = target: T2, bovine COX-1 (Ovis aries, UniProt P05979); assay: COX inhibitor screening assay kit, COX-1; assay type: biochemical; conditions: calculated from two concentrations (350 and 50 µg/mL); read-out: IC50 COX-1
T2 construct: purchased Cayman Chemical 560131
T2 sequence (P05979 25-600): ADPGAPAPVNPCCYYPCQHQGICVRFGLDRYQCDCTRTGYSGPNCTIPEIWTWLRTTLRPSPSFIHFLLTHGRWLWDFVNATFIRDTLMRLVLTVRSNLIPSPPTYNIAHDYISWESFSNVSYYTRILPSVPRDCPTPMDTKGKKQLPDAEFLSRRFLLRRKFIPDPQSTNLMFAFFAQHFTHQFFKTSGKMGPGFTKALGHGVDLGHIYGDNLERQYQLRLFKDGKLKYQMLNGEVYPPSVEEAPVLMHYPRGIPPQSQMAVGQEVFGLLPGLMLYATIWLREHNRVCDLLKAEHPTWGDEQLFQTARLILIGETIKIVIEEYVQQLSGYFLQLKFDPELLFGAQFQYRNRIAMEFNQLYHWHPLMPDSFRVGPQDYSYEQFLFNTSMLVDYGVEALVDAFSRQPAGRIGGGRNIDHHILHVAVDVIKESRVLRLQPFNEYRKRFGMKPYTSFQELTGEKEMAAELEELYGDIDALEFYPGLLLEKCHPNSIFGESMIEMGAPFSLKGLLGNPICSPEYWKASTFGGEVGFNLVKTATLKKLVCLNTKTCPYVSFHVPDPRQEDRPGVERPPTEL
Procedure: The ability of the (AJ) EO to prevent the conversion of arachidonic acid to PGH2 by bovine COX-1 and human recombinant COX-2 was assessed using a COX inhibitor screening assay kit (Item No: 560131, Cayman Chemical, Ann Arbor, MI, USA) according to manufacturer’s guidelines. The 50% inhibitory concentration (IC50) of COX-1/COX-2 activity of the tested samples was determined, with the assay run, in duplicate, with two concentrations (350 and 50 µg/mL). A standard curve of eight concentrations of prostaglandin, a non-specific binding sample, and a maximum binding sample was used, as instructed in the kit manual, to determine the inhibition of the sample plant, applying the generated multiple regression best-fit line. The percentage inhibition of the two concentrations was used to calculate the IC50 [69, 70].

[1] = DPPH free radical scavenging assay; conditions: 30 min, 517 nm
Procedure: One hundred mg of (AJ) EO was dissolved in 100 mL of methanol to create the stock solution (1 mg/mL). The obtained solution was mixed with methanol to obtain different concentrations (2, 3, 5, 7, 10, 20, 30, 40, 50, 80, and 100 μg/mL). One milliliter of stock solution and 1 mL of methanol were mixed with 1 mL of DPPH (Sigma-Aldrich, Steinheim, Germany). Then, the solution was kept in the dark at room temperature for 30 min. However, by replacing the plant EO solution with methanol, the blank solution was prepared. Trolox (Sigma-Aldrich, St. Louis, MO, USA) was utilized as a positive control, and the absorbance for all obtained samples was measured by spectrophotometer (Shimadzu-UV-1800, Kyoto, Japan) at 517 nm. The DPPH inhibitory potentials were estimated utilizing the following formula:I (%) = [ABSblank − ABStest]/[ABSblank]) × 100%(2) where I (%) is the percentage of DPPH inhibitory potentials.

[2] = Proteus vulgaris, read-out: MIC

Question: Which results are given for `CC1(C)S[C@@H]2[C@H](NC(=O)[C@H](N)c3ccccc3)C(=O)N2[C@H]1C(=O)O` [Ampicillin, ampicillin]?
Answer: MIC (MRSA): R; MIC (MRSA; listed as ampicillin): does not have antibacterial activity; MIC (P. aeruginosa): R; MIC (P. vulgaris; [2]): 18 µg/mL (≈ 51.5 µM); MIC (K. pneumoniae): 1 µg/mL (≈ 2.86 µM)

Question: With `COc1cccc2c1C(=O)c1c(O)c3c(c(O)c1C2=O)C[C@@](O)(C(=O)CO)C[C@@H]3O[C@H]1C[C@H](N)[C@H](O)[C@H](C)O1` [doxorubicin] as the compound, how does the IC50 (Caco-2) read?
Answer: 0.37 ± 0.08 µg/mL (≈ 0.681 µM)

Question: And the IC50 (HepG2)?
Answer: 1.21 ± 0.05 µg/mL (≈ 2.23 µM)

Question: And the IC50 (HeLa)?
Answer: 0.84 ± 0.03 µg/mL (≈ 1.55 µM)

Question: What does the source list for `O=C(O)c1cn(C2CC2)c2cc(N3CCNCC3)c(F)cc2c1=O` [Ciprofloxacin, ciprofloxacin]?
Answer: MIC (P. vulgaris): 15 µg/mL (≈ 45.3 µM); MIC (P. vulgaris; [2]): 15 µg/mL (≈ 45.3 µM)

Question: Which results are given for `CC(C(=O)O)c1cccc(C(=O)c2ccccc2)c1` (stereo not shown) [Ketoprofen]?
Answer: potency estimated from few doses (human recombinant COX-2): 40.2 ± 1.09 µg/mL (≈ 158 µM); potency estimated from few doses (bovine COX-1): 7.89 ± 0.96 µg/mL (≈ 31 µM)

Question: For `Cc1c(C)c2c(c(C)c1O)CCC(C)(C(=O)O)O2` (stereo not shown) [Trolox], which “IC50 against DPPH” value [1] is on record?
Answer: 1.58 ± 1.49 ^a µg/mL
